What was measured:
Format in all cases: in vivo
Deroceras reticulatum [1] = test: Forced ingestion trial of azoxystrobin (FS formulation) and picoxystrobin against various slug species (Example 3)
Method: (§1) Adult D. reticulatum were field-collected from an irrigated plot of mixed herbage and maintained in plastic boxes lined with moist, unbleached, absorbent paper and under controlled environmental conditions (12 hour photoperiod, 10° C., 90% RH). Slugs were fed ad. lib. on wheat grain and a mixture of fresh foliage for a period of up to, but not exceeding, one week prior to testing. Slugs were then starved for a period of 48 h before treatment.
Individual slugs were weighed and anaesthetized using CO2 for a period of 10-20 minutes. Test solutions were incorporated into a warm agar jelly (1.0% w/v) to reduce the risk of regurgitation. Twenty μl aliquots of warm agar mix was then injected into the buccal cavity of a single slug using a fine glass micro-syringe and gently eased into the slug crop. Individual slugs were then placed into labelled Petri dishes lined with moist, unbleached, absorbent paper. Following application of treatments, slugs were maintained under controlled environmental conditions (12 hr photoperiod, 10° C., 90% RH), and slug health recorded over the subsequent three days. Slug health was classified into one of four categories: • Healthy (showing no symptoms) • Affected (showing some symptoms of poisoning, excessive mucus production/deformity) • Moribund (severely affected/paralysed, unable to move in response to gentle prodding) • Dead […]

Deroceras reticulatum [2] = test: Forced ingestion trial of Deroceras reticulatum using various strobilurin compounds (Example 2); settings: for slug mortality (in words): 0.5 mg a.i./slug
Method: as §1
(§2) Individual slugs were weighed and anaesthetized using CO2 for a period of 10-20 minutes. Test solutions were incorporated into a warm agar jelly (1.0% w/v) to reduce the risk of regurgitation. Twenty μl aliquots of warm agar mix was then injected into the buccal cavity of a single slug using a fine glass micro-syringe and gently eased into the slug crop. Individual slugs were then placed into labelled Petri dishes lined with moist, unbleached, absorbent paper. Following application of treatments, slugs were maintained under controlled environmental conditions (12 hr photoperiod, 10° C., 90% RH), and slug health recorded over the subsequent three days. Slug health was classified into one of four categories: • Healthy (showing no symptoms) • Affected (showing some symptoms of poisoning, excessive mucus production/deformity) • Moribund (severely affected/paralysed, unable to move in response to gentle prodding) • Dead
For each treatment, 20 slugs were injected. […] The results are shown in Table 3, presented as a percentage of the total number of slugs tested for each treatment.

D. reticulatum = test: Tests to establish potential effect of surfactants on molluscicidal activity, forced ingestion (Example 6)
Method: as §1, §2
The methods used in this trial were the same as those described in Example 2. The treatments tested are listed in Table 10, and results are in Table 11, presented as a percentage of the total number of slugs tested for each treatment. For each treatment 20 slugs were tested. For ease of comparison, the concentrations of each treatment applied were equivalent to the amount of each component that would be applied in a treatment of Amistar® at a rate of 0.1 mg a.i./slug.

Tandonia budapestensis [3] = test: Forced ingestion trial of azoxystrobin (FS formulation) against various slug species (Example 3); settings: 100FS formulation
Method: as §1, §2
(§3) The methods used in this trial were the same as those described in Example 2, except that the following slug species were collected and tested: Deroceras reticulatum, Anion distinctus, Anion fasciatus and Tandonia budapestensis
(§4) For each treatment, 20 slugs were injected. […] The results are shown in Table 5, presented as a percentage of the total number of slugs tested for each treatment.

Arion distinctus [4] = test: as above; settings: 100FS formulation
Method: as §1, §2, §3, §4

Arion fasciatus [5] = test: as above; settings: 100FS formulation
Method: as §1, §2, §3, §4

Deroceras reticulatum [6] = test: Forced ingestion study on D. reticulatum (Example 1); settings: for Number of slugs Affected / Number of slugs Dead / Number of slugs Healthy: of 20 slugs
Method: Forced ingestion studies were setup using the Field Slug, Deroceras reticulatum. A formulation containing the strobilurin azoxystrobin was injected directly into the gut of the slugs. Details of the formulation (Dynasty® 100FS) are: […]
Slugs were field-collected, and starved for 48 hours prior to forced ingestion studies. Individual slugs were weighed and anaesthetized using carbon dioxide for 10 to 20 minutes. Test solutions were incorporated into an agar jelly (1.0% w/v) to reduce the risk of regurgitation. For each slug, ten ul aliquots of warm agar mix were injected into the buccal cavity using a fine glass micro-syringe and gently eased into the slug crop. Individual slugs were then placed into labelled Petri dishes lined with moist, unbleached, absorbent paper. For each treatment, 20 slugs were injected. An untreated control of warm agar gel was injected for comparison purposes.
Treated slugs were maintained under controlled environmental conditions (12 hour photoperiod, 15° C., 90% relative humidity), and slug health assessments recorded over the three subsequent days. Slug health was classified into one of the following categories: • Healthy: showing no symptoms • Affected: showing some symptoms of poisoning, excessive mucus production/deformity • Dead

Tandonia budapestensis [7] = test: Forced ingestion trial of azoxystrobin (SC formulation) against various slug species (Example 4); settings: 250SC formulation
Method: as §1, §2, §3
(§5) For each treatment, at least 20 slugs were injected. […] The results are shown in Table 7, presented as a percentage of the total number of slugs tested for each treatment.

Arion distinctus [8] = test: as above; settings: 250SC formulation
Method: as §1, §2, §3, §5

Arion fasciatus [9] = test: as above; settings: 250SC formulation
Method: as §1, §2, §3, §5

Deroceras reticulatum [10] = test: as above; settings: 250SC formulation
Method: as §1, §2, §3, §5

[11] = 0.1 mg a.i./slug, 72 hours after forced ingestion
[12] = 0.0001 mg azoxystrobin/slug, 24 hours
[13] = 0.0001 mg azoxystrobin/slug, 48 hours
[14] = 0.0001 mg azoxystrobin/slug, 72 hours
[15] = 0.001 mg azoxystrobin/slug, 24 hours
[16] = 0.001 mg azoxystrobin/slug, 48 hours
[17] = 0.001 mg azoxystrobin/slug, 72 hours
[18] = 0.01 mg azoxystrobin/slug, 24 hours
[19] = 0.01 mg azoxystrobin/slug, 48 hours
[20] = 0.01 mg azoxystrobin/slug, 72 hours
[21] = 0.1 mg azoxystrobin/slug, 24 hours
[22] = 0.1 mg azoxystrobin/slug, 48 hours
[23] = 0.1 mg azoxystrobin/slug, 72 hours
[24] = 1 mg azoxystrobin/slug, 24 hours
[25] = 1 mg azoxystrobin/slug, 48 hours
[26] = 1 mg azoxystrobin/slug, 72 hours

With CO/C=C(/C(=O)OC)c1ccccc1COc1cccc(C(F)(F)F)n1 [picoxystrobin] the “mean concentration that kills 99% of the population (probit analysis)” value (Deroceras reticulatum [1]; Deroceras reticulatum, treatments 1 to 4 (Acanto 250SC)) was 0.198 mg a.i./slug and the “killing of slugs (in words)” value (Deroceras reticulatum [1]; doses equivalent to 0.05 mg a.i./slug or more) was “highly effective at killing slugs”.

In the case of CO/N=C(/C1=NOCCO1)c1ccccc1Oc1ncnc(Oc2ccccc2Cl)c1F [fluoxastrobin], the “slug mortality (in words)” value (Deroceras reticulatum [2]) is reported as “significant levels of slug mortality”.

With CON=C(C(=O)OC)c1ccccc1CON=C(C)c1cccc(C(F)(F)F)c1 [trifloxystrobin] the “slug mortality (in words)” value (Deroceras reticulatum [2]) was “significant levels of slug mortality”.

With CO/C=C(/C(=O)OC)c1ccccc1Oc1cc(Oc2ccccc2C#N)ncn1 [azoxystrobin] the Affected % (D. reticulatum; [11]) was 12.5%, the “Dead or Moribund %” value (D. reticulatum; [11]) was 42.5% and the Healthy % (D. reticulatum; [11]) was 45%. For the same compound, the slug mortality (D. reticulatum; azoxystrobin additionally present with surfactant/formulation (treatment 4)) was 100%, the “mean concentration that kills 99% of the population (probit analysis)” value (Deroceras reticulatum [2]; Deroceras reticulatum, treatments 1 to 4 (Amistar 250SC)) was 0.068 mg a.i./slug and the “killing of slugs (in words)” value (Deroceras reticulatum [2]; treatments 1 to 4) was “highly effective at killing slugs”. The “efficacy against slug species (in words)” value (Tandonia budapestensis [3]; Tandonia budapestensis) was “effective against all three species”, the “concentration to kill approximately 99% of the population (probit analysis)” value (Tandonia budapestensis [3]; T. budapestensis) was 0.163 mg a.i./slug and the “efficacy against slug species (in words)” value (Arion distinctus [4]; Arion distinctus) was “effective against all three species”. The “concentration to kill approximately 99% of the population (probit analysis)” value (Arion distinctus [4]; A. distinctus) was 0.183 mg a.i./slug, the “efficacy against slug species (in words)” value (Arion fasciatus [5]; Arion fasciatus) was “effective against all three species” and the “concentration to kill approximately 99% of the population (probit analysis)” value (Arion fasciatus [5]; A. fasciatus) was 0.904 mg a.i./slug. For the same compound, the “Number of slugs Affected” value (Deroceras reticulatum [6]; [12]) was 0, the “Number of slugs Dead” value (Deroceras reticulatum [6]; [12]) was 0 and the “Number of slugs Healthy” value (Deroceras reticulatum [6]; [12]) was 20. The “Number of slugs Affected” value (Deroceras reticulatum [6]; [13]) was 0, the “Number of slugs Dead” value (Deroceras reticulatum [6]; [13]) was 0 and the “Number of slugs Healthy” value (Deroceras reticulatum [6]; [13]) was 20. For the same compound, the “Number of slugs Affected” value (Deroceras reticulatum [6]; [14]) was 0, the “Number of slugs Dead” value (Deroceras reticulatum [6]; [14]) was 0 and the “Number of slugs Healthy” value (Deroceras reticulatum [6]; [14]) was 20. For the same compound, the “Number of slugs Affected” value (Deroceras reticulatum [6]; [15]) was 4, the “Number of slugs Dead” value (Deroceras reticulatum [6]; [15]) was 0 and the “Number of slugs Healthy” value (Deroceras reticulatum [6]; [15]) was 16. For the same compound, the “Number of slugs Affected” value (Deroceras reticulatum [6]; [16]) was 2, the “Number of slugs Dead” value (Deroceras reticulatum [6]; [16]) was 4 and the “Number of slugs Healthy” value (Deroceras reticulatum [6]; [16]) was 14. For the same compound, the “Number of slugs Affected” value (Deroceras reticulatum [6]; [17]) was 2, the “Number of slugs Dead” value (Deroceras reticulatum [6]; [17]) was 4 and the “Number of slugs Healthy” value (Deroceras reticulatum [6]; [17]) was 14. The “Number of slugs Affected” value (Deroceras reticulatum [6]; [18]) was 6, the “Number of slugs Dead” value (Deroceras reticulatum [6]; [18]) was 2 and the “Number of slugs Healthy” value (Deroceras reticulatum [6]; [18]) was 12. The “Number of slugs Affected” value (Deroceras reticulatum [6]; [19]) was 6, the “Number of slugs Dead” value (Deroceras reticulatum [6]; [19]) was 6 and the “Number of slugs Healthy” value (Deroceras reticulatum [6]; [19]) was 8. The “Number of slugs Affected” value (Deroceras reticulatum [6]; [20]) was 6, the “Number of slugs Dead” value (Deroceras reticulatum [6]; [20]) was 6 and the “Number of slugs Healthy” value (Deroceras reticulatum [6]; [20]) was 8. The “Number of slugs Affected” value (Deroceras reticulatum [6]; [21]) was 2, the “Number of slugs Dead” value (Deroceras reticulatum [6]; [21]) was 16 and the “Number of slugs Healthy” value (Deroceras reticulatum [6]; [21]) was 2. The “Number of slugs Affected” value (Deroceras reticulatum [6]; [22]) was 0, the “Number of slugs Dead” value (Deroceras reticulatum [6]; [22]) was 18 and the “Number of slugs Healthy” value (Deroceras reticulatum [6]; [22]) was 2. For the same compound, the “Number of slugs Affected” value (Deroceras reticulatum [6]; [23]) was 0, the “Number of slugs Dead” value (Deroceras reticulatum [6]; [23]) was 18 and the “Number of slugs Healthy” value (Deroceras reticulatum [6]; [23]) was 2. For the same compound, the “Number of slugs Affected” value (Deroceras reticulatum [6]; [24]) was 0, the “Number of slugs Dead” value (Deroceras reticulatum [6]; [24]) was 20 and the “Number of slugs Healthy” value (Deroceras reticulatum [6]; [24]) was 0. For the same compound, the “Number of slugs Affected” value (Deroceras reticulatum [6]; [25]) was 0, the “Number of slugs Dead” value (Deroceras reticulatum [6]; [25]) was 20 and the “Number of slugs Healthy” value (Deroceras reticulatum [6]; [25]) was 0. For the same compound, the “Number of slugs Affected” value (Deroceras reticulatum [6]; [26]) was 0, the “Number of slugs Dead” value (Deroceras reticulatum [6]; [26]) was 20 and the “Number of slugs Healthy” value (Deroceras reticulatum [6]; [26]) was 0. The “activity against D. reticulatum slugs (in words)” value (Deroceras reticulatum [6]; efficacy increases with concentration and with time) was “active against D. reticulatum slugs”, the “efficacy against slug species (in words)” value (Tandonia budapestensis [7]) was “effective against all four slug species tested” and the “efficacy against slug species (in words)” value (Arion distinctus [8]) was “effective against all four slug species tested”. For the same compound, the “efficacy against slug species (in words)” value (Arion fasciatus [9]) was “effective against all four slug species tested” and the “efficacy against slug species (in words)” value (Deroceras reticulatum [10]) was “effective against all four slug species tested”.

Reference: US20150296780A1, “MOLLUSCICIDE” (Syngenta Participations AG, priority 2008, published 2015)
